In PMC8178536 (Journal of Ethnopharmacology, 2021):
pIC50, pKd: −log10 of the molar value. Like-named read-outs stand apart in the source and are kept apart here.

Columns and labels:
[1] = target: SARS-CoV-2 RBD (Severe acute respiratory syndrome coronavirus 2, UniProt P0DTC2); test: biochemical; format: binding
[2] = test system: SARS-CoV-2 S protein-pseudoviruses, 293T-ACE2 cells; test: microbe, parasite or virus in culture; format: cell-based
[3] = target: ACE2-RBD interaction (human ACE2 / SARS-CoV-2 S protein RBD) (Severe acute respiratory syndrome coronavirus 2, UniProt P0DTC2); test: biochemical; format: binding, human; SARS-CoV-2
[4] = target: ACE2 (Homo sapiens, UniProt Q9BYF1); format: binding; conditions: SPR, two-fold serial dilutions
Chain of ACE2 (Q9BYF1 18-740): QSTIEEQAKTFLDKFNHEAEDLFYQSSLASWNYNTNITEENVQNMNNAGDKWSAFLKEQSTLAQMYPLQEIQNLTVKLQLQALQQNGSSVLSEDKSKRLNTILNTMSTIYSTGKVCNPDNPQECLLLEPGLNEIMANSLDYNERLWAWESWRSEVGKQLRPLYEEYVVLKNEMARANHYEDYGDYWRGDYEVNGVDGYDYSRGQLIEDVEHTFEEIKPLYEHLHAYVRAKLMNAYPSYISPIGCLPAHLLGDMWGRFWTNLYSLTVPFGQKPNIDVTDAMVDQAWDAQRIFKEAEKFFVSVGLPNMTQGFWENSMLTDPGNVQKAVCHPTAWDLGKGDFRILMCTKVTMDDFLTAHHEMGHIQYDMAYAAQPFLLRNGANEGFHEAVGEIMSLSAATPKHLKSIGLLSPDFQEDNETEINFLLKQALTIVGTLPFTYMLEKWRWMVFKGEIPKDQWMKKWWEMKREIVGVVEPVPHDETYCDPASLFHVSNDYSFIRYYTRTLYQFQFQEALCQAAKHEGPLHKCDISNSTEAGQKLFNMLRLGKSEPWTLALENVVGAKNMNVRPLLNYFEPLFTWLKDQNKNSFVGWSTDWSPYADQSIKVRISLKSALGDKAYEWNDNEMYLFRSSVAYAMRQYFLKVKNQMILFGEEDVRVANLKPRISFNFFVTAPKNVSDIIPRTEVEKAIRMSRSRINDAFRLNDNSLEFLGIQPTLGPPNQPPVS

[5] = test system: SARS-CoV-2 S protein-pseudoviruses, Calu-3 cells; format: cell-based
[6] = Severe acute respiratory syndrome coronavirus 2, 293T/ACE2, read-out: IC50, infectivity of S protein-pseudoviruses to 293T-ACE2 cells

Row | Molecule | pKd [1] | pIC50 [2, 6] | pIC50 [3] | binding to immobilized ACE2 [4] | infectivity of SARS-CoV-2 S protein-pseudoviruses to Calu-3 cells [5] | pIC50 ([2]; read-out: IC50, entry of S protein-pseudoviruses into 293T-ACE2 cells)
1 | O=C(O)c1cc(O)c2cc(O)ccc2n1 [Compound 1, 4,6-dihydroxyquinoline-2-carboxylic acid] | 6.22 | 5.96 | 6.24 |  |  | 
2 | O=C(O)c1cc(O)c2ccccc2n1 [Compound 2, 4-hydroxyquinoline-2-carboxylic acid] | 5.28 | 6.36 | 7.15 | low or no binding | abolished the infectivity | 
3 | COc1ccc2nc(C(=O)O)cc(O)c2c1 [Compound 3, 4-hydroxy-6-methoxyquinoline-2-carboxylic acid] | 5.27 | 6.12 | 6.82 |  |  | 
4 | soluble recombinant human ACE2 |  |  |  |  |  | 7.16
